Reference: patent US8710246B2, “Substituted thiophene pentamers” (Biochromix Newco AB, priority 2008, dated 2014)
Entries after “also recorded” stand apart in the source; their conditions may differ.

Tests used:
[1] = test system: Aβ deposits; assay: Long term in vivo effects on amyloid plaques in transgenic mice, cranial window, multiphoton spectroscopy; settings: tail vein injection, 10 mg/kg
Excerpt: This long lasting binding to the plaques is advantageous for a long term therapeutic effect of the inventive compounds.

[2] = test system: hAPPSL transgenic mice; assay: 14 days treatment, general observations, tolerance to compound (toxicity); format: in vivo; settings: for animals that died premature: ip 14 days
Method: Vehicle: Phosphate Buffered Saline (PBS; 6.7 mM PO4, 155 mM NaCl, pH=7.3-7.5) (BioWhittaker PBS from Lonza).
T:I: p-FTAA, Mw=617 g/mol, diluted in vehicle from stock solution in deionized water (10 mg/ml).
Tg hAPPSL: Transgenic hAPPSL mice over-expressing hAPP(751) under the control of the murine Thy-1 promoter with a C57BL/6xDBA background.
(§1) Starting at 4 months of age, female hAPPSL mice were treated with vehicle only or p-FTAA in 3 dosages for 14 days. 40 hAPP Tg mice plus 4 reserves allocated to 4 different treatment groups were treated with either vehicle only (control) or with p-FTAA in dosages of 0.1 mg/kg/day, 1 mg/kg/day, or 10 mg/kg/day. Vehicle and T.I.s were administered twice daily intra peritoneal (ip) for 14 days.
In total 44 animals allocated to 4 treatment groups were included in the study. 4 animals died premature due to unknown reason: 1 animal each of the 1 mg/kg and 10 mg/kg T.I. groups and 2 animals from the control group.

[3] = test system: Human Aβ38, Aβ40 and Aβ42; assay: 30 days treatment, human Aβ determinations in CSF and brain homogenate SDS fraction (Mesoscale immunosorbent assay); format: in vivo, mice
Method: as §1, with “at 8” for “at 4”, “for 30” for “for 14”, “days. The Test Item (T.I.) p-FTAA was administered in 3 dosages in Vehicle. 48” for “days. 40”, “mg/kg/day. As an additional control, 12 nTg littermates of the hAPPSL mice (plus 1 reserve) were treated with vehicle only.” for “mg/kg/day.”, “peritoneal (i.p.)” for “peritoneal (ip)”
Human Aβ38, Aβ40 and Aβ42 were determined in homogenates of the left brain hemispheres and in CSF samples of all Tg animals by an immunosorbent assay from Mesoscale Discovery
48 hAPP Tg mice plus 4 reserves allocated to 4 different treatment groups were treated with either vehicle only (control) or p-FTAA. As an additional control, 12 nTg littermates of the hAPPSL mice (plus 1 reserve) were treated with vehicle only. Tg hAPPSL mice with a C57BL/6xDBA background and corresponding nTg littermates at an age of 8 months (±2 weeks) were randomly assigned to the treatment groups.
Left hemi-brain samples (without cerebellum) of Tg animals were homogenized and separated. SDS fraction was prepared, after thawing, hemispheres were homogenized with the Homogenizer “Ultra Turrax T8” at highest speed in TBS (20 mM Tris, 137 mM NaCl, pH=7.6; containing protease inhibitor cocktail; 100 mg brain wet weight per ml TBS). One aliquot (1 ml) was centrifuged (74,200×g for 1 h at 4° C.). The pellets were suspended in 1 ml SDS (2% SDS in Aqua bidest), centrifuged as above and the supernatants were kept at −20° C. (SDS fraction).
In the brain homogenate SDS fraction and in CSF of each Tg mouse, human Aβ38, Aβ40 and Aβ42 levels were measured with a Aβ-kit from Mesoscale Discovery. Aβ levels were evaluated in comparison to a peptide standard as pg/mg brain (wet weight) or pg/ml CSF.
Descriptive statistical analysis was performed on all evaluated parameters. Data were represented as mean±standard deviation (SD). Grubb's test was used to detect outliers. Normality distribution of the values was tested with Kolmogorov Smirnov normality distribution test. Group differences between all Tg groups were calculated by a parametric ANOVA followed by a Bonferroni post test.

[4] = test system: amyloid plaques; assay: 30 days treatment, plaque load by 6E10 IHC and ThioflavinS staining; format: in vivo, mice; settings: for hippocampal plaque load compared to vehicle: t-test
Method: as §1, with “at 8” for “at 4”, “for 30” for “for 14”, “days. The Test Item (T.I.) p-FTAA was administered in 3 dosages in Vehicle. 48” for “days. 40”, “mg/kg/day. As an additional control, 12 nTg littermates of the hAPPSL mice (plus 1 reserve) were treated with vehicle only.” for “mg/kg/day.”, “peritoneal (i.p.)” for “peritoneal (ip)”
Following blood sampling, mice were transcardially perfused with physiological (0.9%) saline. The brains were removed from the skull and the cerebellum was cut off, immediately frozen on dry ice and stored at −80° C. The remaining brain was hemisected and the left hemisphere was weighed, immediately frozen on dry ice and stored at −80° C. until A13 analysis. The right hemisphere was fixed with paraformaldehyde as described in section 4.3.1.
The right hemispheres of all Tg mice were fixed by immersion in freshly prepared 4% paraformaldehyde/PBS (pH 7.4) for one hour at room temperature. Thereafter brains were transferred to a 15% sucrose PBS solution for 24 hours to ensure cryoprotection. On the next day, brains were frozen in isopentane and stored at −80° C. until used for histological analysis.
From 6 animals per Tg group, 15 cryo-sections per layer (altogether 5 layers), each 10 μm thick (Leica CM 3050S) were sagittally cut. Brain levels were chosen according to the morphology atlas “The Mouse Brain” from Paxinos and Franklin (2nd edition). The cutting of the five levels started with a random slice corresponding to FIG. 105 (total appearance of the dentate gyrus), then sampling was continued uniformly and systematically, always retaining 15 slices per level in series and discarding 100 μm in between the levels.
Plaque load was quantified by staining with 6E10 IHC directed against AA1-17 of the human amyloid peptide and ThioflavinS staining against beta-sheet structures in a double incubation. Tissues of all investigated animals were handled uniformly.
Descriptive statistical analysis was performed on all evaluated parameters. Data were represented as mean±standard error of mean (SEM). Outliers were detected by Grubbs' test and were excluded from statistical analyses.
Values of the five single measurements (one from each cut level) per animal were integrated to one value per animal (individual mean). Group means were calculated with these integrated values. After Kolmogorov Smirnov normality distribution tests differences were calculated by a parametric ANOVA followed by a Newman Keuls multiple comparison post-hoc test or by a non-parametric Kruskal Wallis ANOVA followed by a Dunn's Multiple comparison test, if Gaussian distribution was missing.

O=C(O)Cc1cc(-c2ccc(C(=O)O)s2)sc1-c1ccc(-c2sc(-c3ccc(C(=O)O)s3)cc2CC(=O)O)s1 [Compound F]
binding to Aβ deposits in living mouse brain one week after injection ([1]; one week after injection): binding of the inventive compounds to AP deposits could still be observed; also recorded: bound to Aβ deposits in living mouse brain one week after injection | crossing of the blood brain barrier after intravenous injection ([1]; transgenic mice with AD-like pathology): readily cross the blood brain barrier | animals that died premature ([2]; 1 mg/kg group): 1 animal | animals that died premature ([2]; 10 mg/kg group): 1 animal | attribution of premature deaths to the compound ([2]; 0.1, 1, 10 mg/kg/day ip twice daily for 14 days, 4 months old female hAPPSL mice): cannot be attributed to p-FTAA | Aβ38, Aβ40 and Aβ42 levels in CSF compared to vehicle ([3]; 0.1 mg/kg/day ip for 30 days): lower mean Aβ levels but statistical significance was observed for Aβ38 only | Aβ38, Aβ40 and Aβ42 levels in CSF compared to vehicle ([3]; 1 mg/kg/day ip for 30 days): did not differ significantly from the vehicle control | Aβ38, Aβ40 and Aβ42 levels in CSF compared to vehicle ([3]; 10 mg/kg/day ip for 30 days, 8 months old female hAPPSL mice, listed as p-FTAA): significantly decreased; also recorded: highly significant | Aβ38, Aβ40 and Aβ42 levels in SDS brain homogenate fraction compared to vehicle ([3]; 10 mg/kg/day ip for 30 days, listed as p-FTAA): significantly decreased | decrease in plaque area ([4]; 1 mg/kg, hippocampus): 40% | hippocampal plaque load compared to vehicle ([4]; 1 mg/kg/day, ThioflavinS, listed as p-FTAA): Statistical significance; also recorded: significantly lower plaque load | hippocampal plaque load compared to vehicle ([4]; 10 mg/kg/day, ThioflavinS, listed as p-FTAA): Statistical significance; also recorded: significantly lower plaque load | plaque load in the cortex ([4]; 0.1, 1, 10 mg/kg/day, ThioflavinS, listed as p-FTAA): without significant changes; also recorded: comparable among groups | reduction of diffuse 6E10 IR surrounding the plaque-cores, dose of strongest effect ([4]; 6E10 IHC): strongest for the 10 mg/kg p-FTAA treatment | effect on beta-sheet cores, dose of strongest effect ([4]; ThioflavinS): strongest effect on beta-sheet cores was observed for the 1 mg/kg p-FTAA treatment | plaque load, overall effect of treatment ([4]; mainly hippocampus, 6E10 IHC and ThioflavinS): reduction of plaque load
